PMC9298352, “Design, Synthesis and Structural Analysis of Glucocerebrosidase Imaging Agents” (Chemistry (Weinheim an Der Bergstrasse, Germany), 2021)

Assays:
[1] = target: T1, rhGBA (Homo sapiens, UniProt P04062); test: Titration of ABP 6 and ABP 9 with constant rhGBA (gel-based labelling); type: biochemical; conditions: constant rhGBA 200 nM, ABP 150–0.001 nM, 37 °C, 30 mins
T1 construct: made in house; host or cells: insect-baculovirus expression vector system (BEVS)
T1 sequence (P04062 40-536): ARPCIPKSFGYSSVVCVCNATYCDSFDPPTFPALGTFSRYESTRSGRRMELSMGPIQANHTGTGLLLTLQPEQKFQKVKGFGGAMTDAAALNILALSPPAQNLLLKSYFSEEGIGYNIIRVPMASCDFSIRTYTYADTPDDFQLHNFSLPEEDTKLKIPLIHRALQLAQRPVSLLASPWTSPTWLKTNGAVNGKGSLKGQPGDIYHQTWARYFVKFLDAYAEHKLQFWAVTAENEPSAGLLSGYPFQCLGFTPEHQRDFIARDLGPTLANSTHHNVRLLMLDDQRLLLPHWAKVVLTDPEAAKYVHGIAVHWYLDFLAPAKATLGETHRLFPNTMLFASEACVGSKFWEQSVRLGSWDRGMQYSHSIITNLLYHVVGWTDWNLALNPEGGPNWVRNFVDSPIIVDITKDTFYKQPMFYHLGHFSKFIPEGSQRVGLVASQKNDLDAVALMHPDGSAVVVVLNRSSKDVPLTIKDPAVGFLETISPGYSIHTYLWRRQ
Method: (§1) Maximum‐likelihood/σA weighted (2Fo–Fc) electron density map contoured to 1.0 σ (a=1.31 e^−/Å^3). […] Fluorescently labelled rhGBA visualized by Cy5 fluorescent readout. D=denatured protein sample.
The reactions were incubated at 37 °C for 30 mins and denatured with Laemmli (x3) sample buffer at 95 °C for 5 minutes. The samples were resolved by electrophoresis in 10 % SDS‐PAGE gels, running at 200 V for ∼50 minutes. Wet slab gels were scanned on fluorescence using an Amersham Typhoon 5 Imager (GE Healthcare) with λEX 635 nm; λEM >665 nm.

[2] = target: T2, endogenous GBA in HEK293T cells (Homo sapiens, UniProt P04062); test: In situ labeling of GBA in living HEK293T cells (gel-based ABPP); type: cell-based; conditions: 1–1000 nM, 24 h, 37 °C
T2 construct: endogenous in cells; host or cells: HEK293T
T2 sequence (P04062 40-536): T1 sequence (P04062 40-536)
Method: (§2) HEK293T cells containing endogenous GBA and overexpressed GBA2 were treated with the ABPs at different concentrations (1–1000 nM) for 24 hr. Cells were then washed, lysed and the fluorescence was visualized by gel‐based ABPP (Figure 8).
(§3) CBB, Coomassie Brilliant Blue staining (bottom panel).
(§4) Labelling of HEK293T cells, containing endogenous GBA and overexpressed GBA2, with ABPs 6, 8 and 9 was conducted based on previously described methods[69] as outlined in the Supporting Information (page 7).
(§5) Cy5 tetrazine 20 (2.83 mg, 4.3 µmol) was added to a solution of norbornene 19 (0.94 mg, 2.38 µmol) in MeOH (4 mL). After stirring overnight at rt, the reaction mixture was concentrated in vacuo and purified by HPLC under neutral conditions (A: 50 mM NH4HCO3 in H2O; B: MeCN; 49% → 52%, A in […]
(§6) Biochemical Methods: General Experimental Details
(§7) Recombinant human GBA (rhGBA, imiglucerase, Cerezyme®) and GAA (rhGAA, alglucosidase alfa, Myozyme) were obtained from Sanofi Genzyme (Cambridge, MA, USA). HEK293T (CRL-3216) cell lines were purchased from ATCC (Manassas, VA, USA). Cell lines were […]
(§8) (1 picture or pasted object on this page, not shown here)

[3] = target: T3, overexpressed GBA2 in HEK293T cells (Homo sapiens, UniProt Q9HCG7); test: In situ labeling of GBA2 in living HEK293T cells (gel-based ABPP); type: cell-based; conditions: HEK293T cells overexpressing GBA2, 1–1000 nM, 24 h, 37 °C
T3 construct: expressed in transfected cells; host or cells: HEK293T
T3 sequence (Q9HCG7 1-927): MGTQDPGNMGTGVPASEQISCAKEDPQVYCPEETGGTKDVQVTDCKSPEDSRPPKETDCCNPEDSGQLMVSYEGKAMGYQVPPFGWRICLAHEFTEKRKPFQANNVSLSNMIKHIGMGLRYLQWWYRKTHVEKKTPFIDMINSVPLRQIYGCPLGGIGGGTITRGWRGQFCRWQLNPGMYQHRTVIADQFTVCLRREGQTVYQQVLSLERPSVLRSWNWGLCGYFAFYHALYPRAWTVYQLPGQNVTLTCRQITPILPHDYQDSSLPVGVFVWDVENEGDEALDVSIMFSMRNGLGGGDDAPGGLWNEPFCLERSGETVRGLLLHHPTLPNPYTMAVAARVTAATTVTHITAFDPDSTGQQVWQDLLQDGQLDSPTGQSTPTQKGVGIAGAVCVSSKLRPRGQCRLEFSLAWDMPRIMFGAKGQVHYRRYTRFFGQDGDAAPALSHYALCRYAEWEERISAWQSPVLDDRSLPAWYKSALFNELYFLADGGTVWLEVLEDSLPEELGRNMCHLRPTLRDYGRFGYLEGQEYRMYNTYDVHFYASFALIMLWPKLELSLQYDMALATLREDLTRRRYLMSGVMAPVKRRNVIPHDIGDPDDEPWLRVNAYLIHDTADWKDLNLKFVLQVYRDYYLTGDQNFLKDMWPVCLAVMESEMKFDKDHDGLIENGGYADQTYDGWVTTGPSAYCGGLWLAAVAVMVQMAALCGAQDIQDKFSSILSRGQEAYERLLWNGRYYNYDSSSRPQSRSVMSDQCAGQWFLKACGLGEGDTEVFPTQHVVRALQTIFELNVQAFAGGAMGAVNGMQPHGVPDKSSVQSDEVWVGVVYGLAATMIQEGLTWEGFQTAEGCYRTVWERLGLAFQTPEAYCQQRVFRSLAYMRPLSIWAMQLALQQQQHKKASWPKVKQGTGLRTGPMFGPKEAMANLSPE
Method: as §2, §3, §4, §5, §6, §7, §8

[4] = target: T1, rhGBA; test: rhGBA titration with constant ABP 6 and ABP 9 (gel-based labelling); type: biochemical; conditions: ABP 150 nM, rhGBA 500–0.01 nM, 37 °C, 30 mins
Method: as §1
rhGBA produced in BEVS[58] was prepared at 500, 250, 100, 50, 10, 1, 0.1 and 0.01 nM in 150 mM McIlvaine buffer pH 5.2 (supplemented with 0.1 % (v/v) Triton X‐100 and 0.2 % (w/v) sodium taurocholate). […] The samples were denatured with Laemmli (x3) sample buffer by heating at 95 °C for 5 minutes and resolved by electrophoresis in 10 % SDS‐PAGE gels, running at 200 V for ∼50 minutes. Wet slab gels were scanned on fluorescence using an Amersham Typhoon 5 Imager (GE Healthcare) with λEX 635 nm; λEM >665 nm.

[5] = target: T4, recombinant human GAA (rhGAA, Myozyme) (Homo sapiens, UniProt P10253); test: In vitro apparent IC50, fluorogenic substrate assay on rhGAA; type: biochemical
T4 construct: purchased Sanofi Genzyme (Cambridge, MA, USA)
Method: All assays were performed in duplicate sets, each with 3 technical replicates at each inhibitor concentration. DMSO concentration was kept at 0.5 %–1 % (v/v) in all assays during incubation with compounds. In vitro apparent IC50 values were calculated by fitting data with [inhibitor] vs. response‐various slope (four parameters) function using Graphpad Prism 7.0 software. Average values and standard deviations were calculated from the two sets.

## CCCCCCCCN1[C@@H]2[C@H](Cn3cc(CNC(=O)CCCCC[N+]4=C(/C=C/C=C/C=C5/N(C)c6ccccc6C5(C)C)C(C)(C)c5ccccc54)nn3)[C@@H](O)[C@H](O)[C@@H](O)[C@@H]21 (some centres unmarked) [ABP 6]
[1]
  gel-detection limit (ABP concentration): 1 nM
[2]
  ABP concentration at which in situ labeling of GBA is observed: 10 nM
[3]
  ABP concentration at which in situ labeling of GBA2 is observed: 100 nM
[4]
  lowest rhGBA concentration labelled: 1 nM
[5]
  IC50: > 100 µM
